The numbers were not newly measured in patent publication US11350648B2, “Compositions and related methods for agriculture” (priority 2017, dated 2022), which cites them from elsewhere.

For this series, the system named is gram-negative and gram-positive bacteria as well as fungi.

On to “NCR335: cationic NCR peptide (RQMIILRLNTTFRPLNFKMLRFWGQN)”, for which the antimicrobial activity result was “effective against gram-negative and gram-positive bacteria as well as fungi”.
